Results: patent US10745382B2 (BRISTOL-MYERS SQUIBB COMPANY, priority 2015, dated 2020)
Read-outs that look alike come from different tables or passages of the source.

Biological target: T1, PD-1/PD-L1 (Homo sapiens, UniProt Q9NZQ7)
T1 construct: made in house; host or cells: HEK293T
Assay: PD-1/PD-L1 Homogenous Time-Resolved Fluorescence (HTRF) binding assay
Settings: PD-L1-His 10 nM, PD-1-Ig 20 nM, read-out: Range or IC50
Experimental: The ability of the compounds of formula (I) to bind to PD-L1 was investigated using a PD-1/PD-L1 Homogenous Time-Resolved Fluorescence (HTRF) binding assay.
Homogenous Time-Resolved Fluorescence (HTRF) Binding Assay.
All binding studies were performed in an HTRF assay buffer consisting of dPBS supplemented with 0.1% […] bovine serum albumin and 0.05% (v/v) Tween-20. […] HTRF detection was achieved using europium crypate-labeled anti-Ig (1 nM final) and allophycocyanin (APC) labeled anti-His (20 nM final). Antibodies were diluted in HTRF detection buffer and 5 μl was dispensed on top of the binding reaction. […] Additional binding assays were established between the human proteins PD-1-Ig/PD-L2-His (20 & 5 nM, respectively) and CD80-His/PD-L1-Ig (100 & 10 nM, respectively). […]

T1 sequence (Q9NZQ7 with tags, fused parts or gaps): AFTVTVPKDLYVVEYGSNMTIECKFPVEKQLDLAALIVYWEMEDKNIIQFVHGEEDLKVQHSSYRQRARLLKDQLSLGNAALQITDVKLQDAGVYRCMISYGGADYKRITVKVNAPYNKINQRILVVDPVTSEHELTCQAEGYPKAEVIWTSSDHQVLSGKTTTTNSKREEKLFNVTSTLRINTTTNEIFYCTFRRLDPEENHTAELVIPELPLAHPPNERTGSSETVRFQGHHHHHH

IC50 (value given as range class) | IC50 (numeric IC50, cell prints uM) | Structure (SMILES)
0.00021 to 0.01 µM | – | Cc1cc(COc2cc(OCc3cncc(C#N)c3)c(CN[C@](C)(CO)C(=O)O)cc2Cl)c(C)c(-c2cccc(OCCCN3CC[C@@H](O)C3)c2C)c1 [Example 3026, (R)-2-((5-chloro-2-((5-cyanopyridin-3-yl)methoxy)-4-((3′-(3-((R)-3-hydroxypyrrolidin-1-yl)propoxy)-2,2′,5-trimethyl-[1,1′-biphenyl]-3-yl)methoxy)benzyl)amino)-3-hydroxy-2-methylpropanoic Acid, 2TFA]
0.00021 to 0.01 µM | – | CC(=O)N[C@H]1CCN(CCCOc2cccc(-c3cccc(COc4cc(OCc5cncc(C#N)c5)c(CN[C@](C)(CO)C(=O)O)cc4Cl)c3Cl)c2Cl)C1 [Example 2070, (R)-2-((4-((3′-(3-((S)-3-acetamidopyrrolidin-1-yl)propoxy)-2,2′-dichloro-[1,1′-biphenyl]-3-yl)methoxy)-5-chloro-2-((5-cyanopyridin-3-yl)methoxy)benzyl)amino)-3-hydroxy-2-methylpropanoic Acid]
0.00021 to 0.01 µM | – | Cc1c(COc2cc(OCc3cncc(C#N)c3)c(CNC3(CO)COC3)cc2Cl)cccc1-c1cccc(OCCCN2CC[C@@H](O)C2)c1Cl [Example 2110, (R)-5-((4-chloro-5-((2′-chloro-3′-(3-(3-hydroxypyrrolidin-1-yl)propoxy)-2-methyl-[1,1′-biphenyl]-3-yl)methoxy)-2-(((3-(hydroxymethyl)oxetan-3-yl)amino)methyl)phenoxy)methyl)nicotinonitrile]
2.01 to 10 µM | – | CNC(=O)c1cccc(-c2cccc(COc3cc(OCc4cc(F)cc(F)c4)c(CN4CCOC[C@H]4C(=O)O)cc3Cl)c2C)c1C [Example 4027, (S)-4-(5-chloro-2-((3,5-difluorobenzyl)oxy)-4-((2,2′-dimethyl-3′-(methylcarbamoyl)-[1,1′-biphenyl]-3-yl)methoxy)benzyl)morpholine-3-carboxylic Acid]
0.00021 to 0.01 µM | – | Cc1c(COc2cc(OCc3cncc(C#N)c3)c(CN3CCCC[C@H]3C(=O)O)cc2Cl)cccc1-c1cccc(OCCCN2CCC(N3CCOCC3)CC2)c1C [Example 2248, (2S)-1-(5-chloro-2-((5-cyanopyridin-3-yl)methoxy)-4-((2,2′-dimethyl-3′-(3-(4-morpholinopiperidin-1-yl)propoxy)biphenyl-3-yl)methoxy)benzyl)piperidine-2-carboxylic Acid]
0.00021 to 0.01 µM | – | Cc1c(COc2cc(OCc3cncc(C#N)c3)c(CN3CCCC[C@H]3C(=O)O)cc2Cl)cccc1-c1cccc(OCCCN2CCCC(CO)C2)c1C (stereo partly drawn) [Example 2206, (2S)-1-(5-chloro-2-((5-cyanopyridin-3-yl)methoxy)-4-((3′-(3-(3-(hydroxymethyl)piperidin-1-yl)propoxy)-2,2′-dimethylbiphenyl-3-yl)methoxy)benzyl)piperidine-2-carboxylic Acid]
0.00021 to 0.01 µM | – | Cc1c(COc2cc(OCc3cncc(C#N)c3)c(CNC(C)(CO)CO)cc2Cl)cccc1-c1cccc(OCC(O)CO)c1Cl (centres unmarked) [Example 2082, 5-((4-chloro-5-((2′-chloro-3′-(2,3-dihydroxypropoxy)-2-methyl-[1,1′-biphenyl]-3-yl)methoxy)-2-(((1,3-dihydroxy-2-methylpropan-2-yl)amino)methyl)phenoxy)methyl)nicotinonitrile]
0.00021 to 0.01 µM | – | Cc1c(COc2cc(OCc3cncc(C#N)c3)c(CO)cc2Cl)cccc1-c1cccc(OCCCN2CCCC(CO)C2)c1Cl (centres unmarked) [Example 2044, 5-((4-chloro-5-((2′-chloro-3′-(3-(3-(hydroxymethyl)piperidin-1-yl)propoxy)-2-methyl-[1,1′-biphenyl]-3-yl)methoxy)-2-(hydroxymethyl)phenoxy)methyl)nicotinonitrile]
0.00021 to 0.01 µM | – | Cc1ccccc1-c1cccc(COc2cc(OCc3cncc(C#N)c3)c(CN[C@@](C)(CO)C(=O)O)cc2Cl)c1C [Example 3020, (S)-2-((5-chloro-2-((5-cyanopyridin-3-yl)methoxy)-4-((2,2′-dimethyl-[1,1′-biphenyl]-3-yl)methoxy)benzyl)amino)-3-hydroxy-2-methylpropanoic Acid]
0.01 to 0.1 µM | – | Cc1c(COc2cc(OCc3cncc(C#N)c3)c(CN3C[C@@H](O)C[C@H]3C(=O)O)cc2Cl)cccc1-c1cccc(OCC(=O)N2CC[C@@H](O)C2)c1 [Example 1008, (2S,4S)-1-(5-chloro-2-((5-cyanopyridin-3-yl)methoxy)-4-((3′-(2-((R)-3-hydroxypyrrolidin-1-yl)-2-oxoethoxy)-2-methyl-[1,1′-biphenyl]-3-yl)methoxy)benzyl)-4-hydroxypyrrolidine-2-carboxylic Acid]
0.00021 to 0.01 µM | – | Cc1c(COc2cc(OCc3cncc(S(C)(=O)=O)c3)c(CN3CCCC[C@H]3C(=O)O)cc2Cl)cccc1-c1cccc(OCCCN2CC[C@H](O)C2)c1C [Example 1090, (S)-1-(5-chloro-4-((3′-(3-((S)-3-hydroxypyrrolidin-1-yl)propoxy)-2,2′-dimethyl-[1,1′-biphenyl]-3-yl)methoxy)-2-((5-(methylsulfonyl)pyridin-3-yl)methoxy)benzyl)piperidine-2-carboxylic Acid]
– | 2 µM | Cc1c(OCCCN2CC[C@@H](O)C2)cccc1-c1cccc(OCc2cc(O)c(CN(C)C)cc2Cl)c1C [Example 2123, (R)-1-(3-((3′-((2-chloro-4-((dimethylamino)methyl)-5-hydroxybenzyl)oxy)-2,2′-dimethyl-[1,1′-biphenyl]-3-yl)oxy)propyl)pyrrolidin-3-ol]
0.00021 to 0.01 µM | – | Cc1c(COc2cc(OCc3cncc(C#N)c3)c(CN[C@](C)(CO)C(=O)O)cc2Cl)cccc1-c1cccc(OCCCN2CCCC(CO)C2)c1Cl (stereo partly drawn) [Example 2043, (2R)-2-((5-chloro-4-((2′-chloro-3′-(3-(3-(hydroxymethyl)piperidin-1-yl)propoxy)-2-methyl-[1,1′-biphenyl]-3-yl)methoxy)-2-((5-cyanopyridin-3-yl)methoxy)benzyl)amino)-3-hydroxy-2-methylpropanoic Acid]
0.00021 to 0.01 µM | – | Cc1c(COc2cc(OCc3cncc(S(C)(=O)=O)c3)c(CN3CCCC[C@H]3C(=O)O)cc2Cl)cccc1-c1ccc2c(c1)OC(CCN1CC[C@@H](O)C1)CO2 (mixture of isomers) [Example 1507, (2S)-1-(5-chloro-4-((3-(3-(2-((R)-3-hydroxypyrrolidin-1-yl)ethyl)-2,3-dihydrobenzo[b][1,4]dioxin-6-yl)-2-methylbenzyl)oxy)-2-((5-(methylsulfonyl)pyridin-3-yl)methoxy)benzyl)piperidine-2-carboxylic acid]
0.00021 to 0.01 µM | – | Cc1c(COc2cc(OCc3cncc(C#N)c3)c(CN[C@H](CO)C(=O)O)cc2Cl)cccc1-c1cccc(OCCCN2CC[C@@H](O)C2)c1 [Example 1016, (R)-2-((5-chloro-2-((5-cyanopyridin-3-yl)methoxy)-4-((3′-(3-((R)-3-hydroxypyrrolidin-1-yl)propoxy)-2-methyl-[1,1′-biphenyl]-3-yl)methoxy)benzyl)amino)-3-hydroxypropanoic Acid]
0.00021 to 0.01 µM | – | COC(=O)[C@@H]1C[C@@H](O)CN1CCCOc1cccc(-c2cccc(COc3cc(OCc4cncc(S(C)(=O)=O)c4)c(CN[C@](C)(CO)C(=O)O)cc3Cl)c2C)c1Cl [Example 1068, (R)-2-((5-chloro-4-((2′-chloro-3′-(3-((2S,4R)-4-hydroxy-2-(methoxycarbonyl)pyrrolidin-1-yl)propoxy)-2-methyl-[1,1′-biphenyl]-3-yl)methoxy)-2-((5-(methylsulfonyl)pyridin-3-yl)methoxy)benzyl)amino)-3-hydroxy-2-methylpropanoic Acid]
0.00021 to 0.01 µM | – | Cc1c(COc2cc(OCc3cncc(C(N)=O)c3)c(CN[C@](C)(CO)C(=O)O)cc2Cl)cccc1-c1cccc(OCCCN2CCC(O)(C(=O)O)C2)c1C (stereo partly drawn) [Example 1057, 1-(3-((3′-((5-((5-carbamoylpyridin-3-yl)methoxy)-4-((((R)-2-carboxy-1-hydroxypropan-2-yl)amino)methyl)-2-chlorophenoxy)methyl)-2,2′-dimethyl-[1,1′-biphenyl]-3-yl)oxy)propyl)-3-hydroxypyrrolidine-3-carboxylic Acid]
0.00021 to 0.01 µM | – | Cc1c(COc2cc(OCc3cncc(C#N)c3)c(CN3CC[C@H](O)C3)cc2Cl)cccc1-c1ccc2c(c1)OC(CCN1CC[C@H](O)C1)CO2 (mixture of isomers) [Example 1501, 5-((4-chloro-5-((3-(3-(2-((S)-3-hydroxypyrrolidin-1-yl)ethyl)-2,3-dihydrobenzo[b][1,4]dioxin-6-yl)-2-methylbenzyl)oxy)-2-(((S)-3-hydroxypyrrolidin-1-yl)methyl)phenoxy)methyl)nicotinonitrile]
0.01 to 0.1 µM | – | Cc1c(COc2cc(OCc3cncc(C#N)c3)c(CN3CCCC[C@H]3C(=O)O)cc2Cl)cccc1-c1cccc(C(=O)NCCN2CCCC2)c1C [Example 4002, (S)-1-(5-chloro-2-((5-cyanopyridin-3-yl)methoxy)-4-((2,2′-dimethyl-3′-((2-(pyrrolidin-1-yl)ethyl)carbamoyl)-[1,1′-biphenyl]-3-yl)methoxy)benzyl)piperidine-2-carboxylic Acid]
0.1 to 2 µM | – | COc1cc(NC(=O)c2cccc(-c3cccc(OCCCN4CC[C@@H](O)C4)c3C)c2C)c(Cl)cc1C(=O)N1CCCC[C@H]1C(=O)O [Example 4519, (S)-1-(5-chloro-4-(3′-(3-((R)-3-hydroxypyrrolidin-1-yl)propoxy)-2,2′-dimethyl-[1,1′-biphenyl]-3-ylcarboxamido)-2-methoxybenzoyl)piperidine-2-carboxylic Acid]
